Data from US10800772B2 (Gilead Sciences, Inc., priority 2016, dated 2020).

Columns and labels:
Assay type in all cases: cell-based, HIV-1
[1] = tested on: HIV-IIIb IN T174I BT; experiment: Antiviral assay in MT4 cells, HIV-IIIb IN T174I BT virus (from viral breakthrough); conditions: Human immunodeficiency virus 1, IIIB, MT4, 120 h, read-out: T174I BT EC50, MT4 cells, HIV-IIIb IN T174I BT (viral breakthrough), 5 days, CellTiter-Glo
How it was run: (§1)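 Each EC50 is the compound concentration that reduced CellTiter-Glo luminescence by 50% after 5 days of culture of HIV-IIIb-infected MT4 cells. Infection was at 0.004 m.o.i. with 3 h pre-incubation. Testing used 10 concentrations in quadruplicate.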

[2] = tested on: HIV-IIIb IN T174I DE; experiment: Antiviral assay in MT4 cells, HIV-IIIb IN T174I DE virus (from dose escalation passaging); conditions: Human immunodeficiency virus 1, IIIB, MT4, 120 h, read-out: T174I DE EC50, MT4 cells, HIV-IIIb IN T174I DE (dose escalation), 5 days, CellTiter-Glo
How it was run: as §1

[3] = tested on: HIV-IIIb (wildtype); experiment: Antiviral assay in MT4 cells, HIV-IIIb wildtype; conditions: Human immunodeficiency virus 1, IIIB, MT4, 120 h, read-out: WT EC50
How it was run: as §1

Row | SMILES | EC50 [1] [nM] | EC50 [2] [nM] | EC50 [3] [nM]
1 | Cc1cc2nc(-c3ccc4[nH]nc(C5CCN(C6COC6)CC5)c4n3)sc2c(-c2ccc(Cl)cc2)c1[C@H](OC(C)(C)C)C(=O)O [Compound 174, (S)-2-(tert-butoxy)-2-(7-(4-chloro-phenyl)-5-methyl-2-(3-(1-(oxetan-3-yl)piperidin-4-yl)-1H-pyrazolo [4,3-b]pyridin-5-yl)benzo[d]thiazol-6-yl)acetic acid] | 219 | 587 | 11
2 | [2H]C([2H])([2H])n1nc(C2CCN(C3COC3)CC2)c2nc(-c3nc4cc(C)c([C@H](OC(C)(C)C)C(=O)O)c(-c5ccc(Cl)cc5)c4s3)ccc21 [Compound 176, (S)-2-(tert-butoxy)-2-(7-(4-chloro-phenyl)-5-methyl-2-(1-(methyl-d3)-3-(1-(oxetan-3-yl)piperidin-4-yl)-1H-pyrazolo[4,3-b]pyridin-5-yl)benzo[d]thiazol-6-yl)acetic acid] | 85 | 214 | 3
3 | CCn1nc(C2CCN(C3COC3)CC2)c2nc(-c3nc4cc(C)c([C@H](OC(C)(C)C)C(=O)O)c(-c5ccc(Cl)cc5)c4s3)ccc21 [Compound 177, (S)-2-(tert-butoxy)-2-(7-(4-chloro-phenyl)-2-(1-ethyl-3-(1-(oxetan-3-yl)piperidin-4-yl)-1H-pyrazolo[4,3-b]pyridin-5-yl)-5-methylbenzo[d]thiazol-6-yl) acetic acid] | 47 | 185 | 3
4 | Cc1cc2nc(-c3ccc4c(n3)c(C3CCN(C5COC5)CC3)nn4C3CC3)sc2c(-c2ccc(Cl)cc2)c1[C@H](OC(C)(C)C)C(=O)O [Compound 178, (S)-2-(tert-butoxy)-2-(7-(4-chloro-phenyl)-2-(1-cyclo-propyl-3-(1-(oxetan-3-yl)piperidin-4-yl)-1H-pyrazolo[4,3-b]pyridin-5-yl)-5-methylbenzo[d]thiazol-6-yl) acetic acid] | 121 | 317 | 4
5 | CCn1nc(C2CCN(C3CN(C(=O)OC)C3)CC2)c2nc(-c3nc4cc(C)c([C@H](OC(C)(C)C)C(=O)O)c(-c5ccc(Cl)cc5)c4s3)ccc21 [Compound 179, (S)-2-(tert-butoxy)-2-(7-(4-chloro-phenyl)-2-(1-ethyl-3-(1-(1-(methoxy-carbonyl)azetidin-3-yl)piperidin-4-yl)-1H-pyrazolo [4,3-b]pyridin-5-yl)-5-methylbenzo [d]thiazol-6-yl) acetic acid] | 28 | 108 | 3
6 | COC(=O)N1CC(N2CCC(c3nn(C4CC4)c4ccc(-c5nc6cc(C)c([C@H](OC(C)(C)C)C(=O)O)c(-c7ccc(Cl)cc7)c6s5)nc34)CC2)C1 [Compound 180, (S)-2-(tert-butoxy)-2-(7-(4-chloro-phenyl)-2-(1-cyclopropyl-3-(1-(1-(methoxy-carbonyl)azetidin-3-yl)piperidin-4-yl)-1H-pyrazolo [4,3-b]pyridin-5-yl)-5-methylbenzo [d]thiazol-6-yl) acetic acid] | 64 | 212 | 4
7 | CCn1nc(C2CCN(C3CN(C(C)=O)C3)CC2)c2nc(-c3nc4cc(C)c([C@H](OC(C)(C)C)C(=O)O)c(-c5ccc(Cl)cc5)c4s3)ccc21 [Compound 181, (S)-2-(2-(3-(1-(1-acetylazetidin-3-yl)piperidin-4-yl)-1-ethyl-1H-pyrazolo[4,3-b]pyridin-5-yl)-7-(4-chlorophenyl)-5-methylbenzo [d]thiazol-6-yl)-2-(tert-butoxy) acetic acid] | 12 | 34 | 1
8 | CC(=O)N1CC(N2CCC(c3nn(C4CC4)c4ccc(-c5nc6cc(C)c([C@H](OC(C)(C)C)C(=O)O)c(-c7ccc(Cl)cc7)c6s5)nc34)CC2)C1 [Compound 182, (S)-2-(2-(3-(1-(1-acetylazetidin-3-yl)piperidin-4-yl)-1-cyclopropyl-1H-pyrazolo[4,3-b]pyridin-5-yl)-7-(4-chlorophenyl)-5-methylbenzo [d]thiazol-6-yl)-2-(tert-butoxy) acetic acid] | 27 | 59 | 2
9 | CC(=O)N1CC(N2CCC(c3nn(C(F)F)c4ccc(-c5nc6cc(C)c([C@H](OC(C)(C)C)C(=O)O)c(-c7ccc(Cl)cc7)c6s5)nc34)CC2)C1 [Compound 183, (S)-2-(2-(3-(1-(1-acetylazetidin-3-yl)piperidin-4-yl)-1-(difluoromethyl)-1H-pyrazolo [4,3-b]pyridin-5-yl)-7-(4-chloro-phenyl)-5-methylbenzo[d]thiazol-6-yl)-2-(tert-butoxy) acetic acid] | 29 | 69 | 2
10 | Cc1cc2nc(-c3ccc4c(n3)c(C3CCN([C@H]5C[C@H](O)C5)CC3)nn4C)sc2c(-c2ccc(Cl)cc2)c1[C@H](OC(C)(C)C)C(=O)O [Compound 186, (S)-2-(tert-butoxy)-2-(7-(4-chloro-phenyl)-2-(3-(1-((1r,3r)-3-hydroxy-cyclobutyl)piperidin-4-yl)-1-methyl-1H-pyrazolo[4,3-b]pyridin-5-yl)-5-methylbenzo[d]thiazol-6-yl) acetic acid] | 367 | 784 | 29
11 | Cc1cc2nc(-c3ccc4c(n3)c(C3CCN(C5CC5)CC3)nn4C)sc2c(-c2ccc(Cl)cc2)c1[C@H](OC(C)(C)C)C(=O)O [Compound 187, (S)-2-(tert-butoxy)-2-(7-(4-chloro-phenyl)-2-(3-(1-cyclopropyl-piperidin-4-yl)-1-methyl-1H-pyrazolo[4,3-b]pyridin-5-yl)-5-methylbenzo[d]thiazol-6-yl) acetic acid] | 339 | 844 | 4
12 | CC(=O)N1CC(N2CCC(c3c4nc(-c5nc6cc(C)c([C@H](OC(C)(C)C)C(=O)O)c(-c7ccc(Cl)cc7)c6s5)ccc4nn3C(F)F)CC2)C1 [Compound 189, (S)-2-(2-(3-(1-(1-acetylazetidin-3-yl)piperidin-4-yl)-2-(difluoromethyl)-2H-pyrazolo [4,3-b]pyridin-5-yl)-7-(4-chloro-phenyl)-5-methylbenzo[d]thiazol-6-yl)-2-(tert-butoxy) acetic acid] | 1020 | 1400 | 12
13 | COC(=O)N1CC(N2CCC(c3c4nc(-c5nc6cc(C)c([C@H](OC(C)(C)C)C(=O)O)c(-c7ccc(Cl)cc7)c6s5)ccc4nn3C(F)F)CC2)C1 [Compound 190, (S)-2-(tert-butoxy)-2-(7-(4-chloro-phenyl)-2-(2-(difluoromethyl)-3-(1-(1-(methoxy-carbonyl)azetidin-3-yl)piperidin-4-yl)-2H-pyrazolo [4,3-b]pyridin-5-yl)-5-methylbenzo [d]thiazol-6-yl) acetic acid] | 1760 | 2750 | 6
14 | [2H]C([2H])([2H])n1nc(C2CCN(C3CN(C(=O)OC)C3)CC2)c2nc(-c3nc4cc(C)c([C@H](OC(C)(C)C)C(=O)O)c(-c5ccc(Cl)cc5)c4s3)ccc21 [Compound 191, (S)-2-(tert-butoxy)-2-(7-(4-chloro-phenyl)-2-(3-(1-(1-(methoxycarbonyl)azetidin-3-yl)piperidin-4-yl)-1-(methyl-d3)-1H-pyrazolo[4,3-b]pyridin-5-yl)-5-methylbenzo[d]thiazol-6-yl) acetic acid] | 55 | 108 | 2
15 | [2H]C([2H])([2H])n1nc(C2CCN(C3CN(C(C)=O)C3)CC2)c2nc(-c3nc4cc(C)c([C@H](OC(C)(C)C)C(=O)O)c(-c5ccc(Cl)cc5)c4s3)ccc21 [Compound 192, (S)-2-(2-(3-(1-(1-acetylazetidin-3-yl)piperidin-4-yl)-1-(methyl-d3)-1H-pyrazolo [4,3-b]pyridin-5-yl)-7-(4-chloro-phenyl)-5-methylbenzo[d]thiazol-6-yl)-2-(tert-butoxy) acetic acid] | 28 | 55 | 1
16 | COC(=O)N1CC[C@H](N2CCC(c3nn(C)c4ccc(-c5nc6cc(C)c([C@H](OC(C)(C)C)C(=O)O)c(-c7ccc(Cl)cc7)c6s5)nc34)CC2)C1 [Compound 193, (S)-2-(tert-butoxy)-2-(7-(4-chloro-phenyl)-2-(3-(1-((S)-l-(methoxy-carbonyl)pyrrolidin-3-yl)piperidin-4-yl)-1-methyl-1H-pyrazolo[4,3-b]pyridin-5-yl)-5-methylbenzo[d]thiazol-6-yl) acetic acid] | 87 | 265 | 3
17 | Cc1cc2nc(-c3ccc4c(n3)c(C3CCN(C5COC5)CC3)nn4C(F)F)sc2c(-c2ccc(Cl)cc2)c1[C@H](OC(C)(C)C)C(=O)O [Compound 194, (S)-2-(tert-butoxy)-2-(7-(4-chloro-phenyl)-2-(1-(difluoromethyl)-3-(1-(oxetan-3-yl)piperidin-4-yl)-1H-pyrazolo [4,3-b]pyridin-5-yl)-5-methylbenzo [d]thiazol-6-yl) acetic acid] | 126 | 300 | 4
18 | Cc1cc2nc(-c3ccc4c(n3)c(N3CCN(C5CS(=O)(=O)C5)CC3)nn4C)sc2c(-c2ccc(Cl)cc2)c1[C@H](OC(C)(C)C)C(=O)O [Compound 198, (S)-2-(tert-butoxy)-2-(7-(4-chloro-phenyl)-2-(3-(4-(1,1-dioxidothietan-3-yl)piperazin-1-yl)-1-methyl-1H-pyrazolo[4,3-b]pyridin-5-yl)-5-methylbenzo[d]thiazol-6-yl) acetic acid] | 1040 | 4620 | 9
